Laboratory results taken from patent US5466669A, “Immunostimulatory agent” (Morinaga Milk Industry Co., Ltd., priority 1993, dated 1995).

Legend:
[1] = test system: rat peritoneal mast cells; assay: Test 2: histamine release from rat peritoneal mast cells induced by α-toxin-producing Staphylococcus aureus cells; assay type: cell-based; settings: for Histamine release (Relative %): S. aureus 121 about 1.0×10^8 cells per ml, control (saline) = 100
Description: This test was performed to study the activity of the peptide of the present invention to promote the release of histamine from rat peritoneal mast cells induced by α-toxin-producing Staphylococcus aureus cells.
Staphylococcus aureus 121, an α-toxin-producing strain, was cultured overnight in Brain Heart Infusion broth at 37° C. The bacterial cells were collected by centrifugation at 4000×g for 20 min, washed with phosphate-buffered saline, and suspended in the same buffer for use in the experiment. Rat peritoneal cells were prepared as in Test 1.
The same method as in Test 1 was used, except histamine release from the mast cells was induced by the addition of α-toxin-producing Staphylococcus aureus cells at a final concentration of about 1.0×10^8 cells per ml.

[2] = test system: human polymorphonuclear neutrophils; assay: Test 3: leukotriene release from human polymorphonuclear neutrophils induced by calcium ionophore A23187; assay type: cell-based; settings: for Leukotriene released (ng) B4 / Leukotriene released (ng) C4 / Leukotriene released (ng) 20-COOH / Leukotriene released (ng) 20-OH: A23187 5 μM; for Leukotriene released (ng) B4: saline control 12; for Leukotriene released (ng) C4: saline control 18; for Leukotriene released (ng) 20-COOH: saline control 31; for Leukotriene released (ng) 20-OH: saline control 55; for Leukotriene released (ng) (Total B4): sum of B4, 20-OH and 20-COOH, saline control 98
Description: This test was performed to study the activity of the peptide of the present invention to promote the release of leukotriene B4 from human polymorphonuclear neutrophils induced by the calcium ionophore A23187.
Human polymorphonuclear neutrophils were prepared by fractionation of leukocytes from heparinized blood of healthy donors on a Ficoll-metrizoategradient followed by dextran sedimentation. The cells were centrifuged at 300×g, and washed three times with phosphate-buffered saline, after which less than 2% of the platelets remained. Erythrocytes were removed by exposing the cells to hypotonic conditions. The purity of the polymorphonuclear neutrophil fraction used was greater than 97% as confirmed by light microscopy.
For analysis of leukotriene release, human neutrophils suspended in phosphate-buffered saline at approximately 1×10^7 cells per ml were used as the target cells. The cells were incubated for 30 min in the presence of test substance [(purified peptide obtained by the method as in Example 1, or human lactoferrin (Sigma Chemical Co.), or bovine lactoferrin (Morinaga Milk Industry Co.)]. Leukotriene release from the neutrophils was then induced by the addition of calcium ionophore A23187 (Sigma chemical Co.) at a final concentration of 5 μM. After 30 min, the supernatants of the stimulated cells were deproteinized by addition of 2 ml of methanol-acetonitrile (1:1) overlaid with nitrogen and frozen for 12 h at -70° C. After centrifugation at 1000×g for 15 min the supernatant was evaporated to dryness in a freeze dryer, suspended in 0.5 ml of methanol-water (30:70), overlaid with nitrogen, and stored overnight at -70° C. The samples were centrifuged at 1000×g and the supernatant was assayed for the presence of leukotrienes by high pressure liquid chromatography using a reverse-phase column of Nucleosil (C18; 5 μm particles) at a column temperature of 40° C. The solvent system was a mixture of phosphate buffer (17 mM K2 HPO4 containing 0.05% EDTA), acetonitrile, and methanol (50:30:20) adjusted to pH 5.0 with phosphoric acid. The absorbance at 280 nm of the column effluent was monitored and recorded. The concentration of each eluted leukotriene was determined from the peak area by means of a computing integrator. The leukotrienes were identified from their retention times with reference to known standards. The minimum detectable quantity was 1 ng in each instance.

[3] = test system: rat peritoneal mast cells; assay: Test 1: histamine release from rat peritoneal mast cells induced by calcium ionophore A23187; assay type: cell-based; settings: for Histamine release (Relative %): A23187 5 μM, control (saline) = 100
Description: This test was performed to study the activity of the peptide of the present invention to promote the release of histamine from rat peritoneal mast cells induced by the calcium ionophore A23187.
Peritoneal cells were collected from Wistar rats after intraperitoneal injection of phosphate-buffered saline (consisting of 120 mM NaCl, 10 mM Na2 PO4, 3 mM KH2 PO4, pH 7.4). Their abdoments were massaged and the buffer containing the cells was recovered. The cells were centrifuged at 300×g for 15 min and washed twice with phosphate-buffered saline. The cells from several rats were pooled for use in the experiments.
Rat peritoneal cells containing about 1×10^5 mast cells per ml were used as the target cells. A 500 μl volume of the cell suspension was incubated with 100 μl volume of the test substance [purified peptide obtained by the method as in Example 1, or human lactoferrin (Sigma Chemical Co.), or bovine lactoferrin (Morinaga Milk industry Co.)] at 37° C. for 3O min. Thereafter, histamine release from the mast cells was induced by the addition of calcium ionophore A23187 (Sigma Chemical Co.) at a final concentration of 5 μM. After 10 min of incubation the cells were centrifuged at 300×g for 15 min and the supernatant was removed and deproteinized by the addition of 2 ml of HClO4 (2%). The deproteinized sample was then centrifuged at 2000×g for 20 min and the histamine content in the supernatant was determined by the fluorophotometric analyser technique (AutoAnalyzer: Technikon). Cells in the presence of phosphate-buffered saline served as control.

[4] = test system: peritoneal mast cells; settings: Theobald et al. 1987; cited from earlier work

Phe-Lys-Cys-Arg-Arg-Trp-Gln-Trp-Arg-Met-Lys-Lys-Leu-Gly-Ala-Pro-Ser-Ile-Thr-Cys-Val-Arg-Arg-Ala-Phe (FKCRRWQWRMKKLGAPSITCVRRAF; printed: Phe-Lys-Cys-Arg-Arg-Trp-Gln-Trp-Arg-Met-Lys-Lys-Leu-Gly-Ala-Pro-Ser-Ile-Thr-Cys-Val-Arg-Arg-Ala-Phe) [purified peptide]
Histamine release (Relative %) ([1]; 1 ppm test substance): 200 ± 60 Relative %
activity to promote the release of histamine from mast cells induced by α-toxin-producing Staphylococcus aureus cells (in words) ([1]; 1 to 100 ppm): has activity to promote the release of histamine
Histamine release (Relative %) ([1]; 10 ppm test substance): 250 ± 50 Relative %
Histamine release (Relative %) ([1]; 100 ppm test substance): 460 ± 240 Relative %
Leukotriene released (ng) B4 ([2]; 1 ppm test substance): 12 ng
Leukotriene released (ng) C4 ([2]; 1 ppm test substance): 23 ng
Leukotriene released (ng) 20-COOH ([2]; 1 ppm test substance): 51 ng
Leukotriene released (ng) 20-OH ([2]; 1 ppm test substance): 70 ng
Leukotriene released (ng) (Total B4) ([2]; 1 ppm test substance): 133 ng
activity to promote the release of leukotriene B4 from polymorphonuclear neutrophils (in words) ([2]; 1 to 100 ppm): promotes the release of leukotriene B4
Leukotriene released (ng) B4 ([2]; 10 ppm test substance): 14 ng
Leukotriene released (ng) C4 ([2]; 10 ppm test substance): 17 ng
Leukotriene released (ng) 20-COOH ([2]; 10 ppm test substance): 61 ng
Leukotriene released (ng) 20-OH ([2]; 10 ppm test substance): 116 ng
Leukotriene released (ng) (Total B4) ([2]; 10 ppm test substance): 191 ng
Leukotriene released (ng) B4 ([2]; 100 ppm test substance): 18 ng
Leukotriene released (ng) C4 ([2]; 100 ppm test substance): 23 ng
Leukotriene released (ng) 20-COOH ([2]; 100 ppm test substance): 104 ng
Leukotriene released (ng) 20-OH ([2]; 100 ppm test substance): 162 ng
Leukotriene released (ng) (Total B4) ([2]; 100 ppm test substance): 284 ng
Histamine release (Relative %) ([3]; 1 ppm test substance): 135 ± 10 Relative %
activity to promote the release of histamine from mast cells induced by A23187 (in words) ([3]; 1 to 100 ppm): has activity to promote the release of histamine
Histamine release (Relative %) ([3]; 10 ppm test substance): 145 ± 15 Relative %
Histamine release (Relative %) ([3]; 100 ppm test substance): 175 ± 20 Relative %

lactoferrin
effect on calcium ionophore-induced release of histamine from peritoneal mast cells (in words) [4]: has activity to inhibit calcium ionophore-induced release of histamine
